Active and inactive are the calls of the source. The rule behind the calls is not given here.
Tests used:
GM16216 [1] = assay: Effect on mitochondrial membrane potential in human GM16216 cells assessed as loss of mitochondrial membrane potential at 0.25 uM after 16 hrs by JC1 staining based flow cytometry (reference value: 13%); format: functional
GM16216 [2] = assay: Induction of mitochondrial biogenesis in human GM16216 cells assessed as ratio of COX1 to SDH-A protein levels at 250 after 48 hrs by ELISA relative to control; format: functional
GM15850 [3] = assay: Effect on frataxin expression in human GM15850 cells at 250 nM after 24 hrs by ELISA relative to control; format: functional
GM16216 [4] = assay: Inhibition of ATP production in human GM16216 cells at 2.5 uM after 24 hrs by Vialight reagent based luminescence assay; format: functional, cell-based
GM15850 [5] = assay: Effect on mitochondrial membrane potential in human GM15850 cells assessed as loss of mitochondrial membrane potential at 0.25 uM after 16 hrs by JC1 staining based flow cytometry (reference value: 13%); format: functional
GM15850 [6] = assay: Increase in ATP production in human GM15850 cells at 0.1 to 0.5 uM after 24 hrs by Vialight reagent based luminescence assay; format: functional, cell-based
GM16216 [7] = assay: Restoration of total aconitase activity in human GM16216 cells at 50 nM after 5 days by colorimetric method relative to control; format: functional
GM15850 [8] = assay: Effect on frataxin expression in human GM15850 cells at 50 nM after 24 hrs by ELISA relative to control; format: functional
GM15850 [9] = assay: Effect on frataxin expression in human GM15850 cells at 250 nM after 48 hrs by ELISA relative to control; format: functional
GM16216 [10] = assay: Restoration of total aconitase activity in human GM16216 cells at 250 nM after 5 days by colorimetric method relative to control; format: functional
GM16216 [11] = assay: Effect on mitochondrial membrane potential in human GM16216 cells assessed as intact mitochondrial membrane at 0.25 uM after 16 hrs by JC1 staining based flow cytometry (reference value: 87%); format: functional
GM16216 [12] = assay: Effect on frataxin expression in human GM16216 cells at 50 nM after 48 hrs by ELISA relative to control; format: functional
GM15850 [13] = assay: Effect on mitochondrial membrane potential in human GM15850 cells assessed as intact mitochondrial membrane at 0.25 uM after 16 hrs by JC1 staining based flow cytometry (reference value: 87%); format: functional
GM16216 [14] = assay: Increase in frataxin expression in human GM16216 cells at 50 to 250 nM after 24 to 48 hrs by ELISA; format: functional, cell-based
GM16216 [15] = assay: Effect on frataxin expression in human GM16216 cells at 250 nM after 24 hrs by ELISA relative to control; format: functional
GM16216 [16] = assay: Increase in ATP production in human GM16216 cells at 0.1 to 0.5 uM after 24 hrs by Vialight reagent based luminescence assay; format: functional, cell-based
GM15850 [17] = assay: Induction of mitochondrial biogenesis in human GM15850 cells assessed as increase in ratio of COX1 to SDH-A protein levels at 50 to 250 nM after 24 to 48 hrs by ELISA; format: functional, cell-based
GM15850 [18] = assay: Restoration of total aconitase activity in human GM15850 cells at 250 nM after 5 days by colorimetric method relative to control; format: functional
GM16216 [19] = assay: Induction of mitochondrial biogenesis in human GM16216 cells assessed as ratio of COX1 to SDH-A protein levels at 250 after 24 hrs by ELISA relative to control; format: functional
GM15850 [20] = assay: Increase in frataxin expression in human GM15850 cells at 50 to 250 nM after 24 to 48 hrs by ELISA; format: functional, cell-based
GM15850 [21] = assay: Inhibition of ATP production in human GM15850 cells at 2.5 uM after 24 hrs by Vialight reagent based luminescence assay; format: functional, cell-based
GM16216 [22] = assay: Cytotoxicity against human GM16216 cells at 0.25 to 2.5 uM after 24 to 48 hrs by live/dead staining-based flow cytometry; format: cell-based; settings: gm16216, 2.5 µM
GM16216 [23] = assay: Induction of mitochondrial biogenesis in human GM16216 cells assessed as ratio of COX1 to SDH-A protein levels at 50 after 48 hrs by ELISA relative to control; format: functional
GM15850 [24] = assay: Restoration of total aconitase activity in human GM15850 cells after 5 days by colorimetric method; format: functional, cell-based
GM15850 [25] = assay: Induction of mitochondrial biogenesis in human GM15850 cells assessed as ratio of COX1 to SDH-A protein levels at 50 after 24 hrs by ELISA relative to control; format: functional
GM15850 [26] = assay: Induction of mitochondrial biogenesis in human GM15850 cells assessed as ratio of COX1 to SDH-A protein levels at 250 after 24 hrs by ELISA relative to control; format: functional
GM16216 [27] = assay: Induction of mitochondrial biogenesis in human GM16216 cells assessed as ratio of COX1 to SDH-A protein levels at 50 after 24 hrs by ELISA relative to control; format: functional
GM15850 [28] = assay: Induction of mitochondrial biogenesis in human GM15850 cells assessed as ratio of COX1 to SDH-A protein levels at 50 after 48 hrs by ELISA relative to control; format: functional
GM15850 [29] = assay: Cytotoxicity against human GM15850 cells at 0.25 to 2.5 uM after 24 to 48 hrs by live/dead staining-based flow cytometry; format: cell-based; settings: gm15850, 2.5 µM
GM15850 [30] = assay: Cytoprotection against DEM-induced toxicity in human GM15850 cells assessed as increase in cell viability pretreated for 16 hrs followed by DEM addition and measured after 5 hrs by live/dead staining based flow cytometry; format: functional
GM16216 [31] = assay: Cytoprotection against DEM-induced toxicity in human GM16216 cells assessed as increase in cell viability pretreated for 16 hrs followed by DEM addition and measured after 5 hrs by live/dead staining based flow cytometry; format: functional
GM15850 [32] = assay: Effect on frataxin expression in human GM15850 cells at 50 nM after 48 hrs by ELISA relative to control; format: functional
GM16216 [33] = assay: Effect on frataxin expression in human GM16216 cells at 250 nM after 48 hrs by ELISA relative to control; format: functional
GM16216 [34] = assay: Induction of mitochondrial biogenesis in human GM16216 cells assessed as increase in ratio of COX1 to SDH-A protein levels at 50 to 250 nM after 24 to 48 hrs by ELISA; format: functional, cell-based
GM16216 [35] = assay: Effect on frataxin expression in human GM16216 cells at 50 nM after 24 hrs by ELISA relative to control; format: functional
GM15850 [36] = assay: Restoration of total aconitase activity in human GM15850 cells at 50 nM after 5 days by colorimetric method relative to control; format: functional
GM15850 [37] = assay: Induction of mitochondrial biogenesis in human GM15850 cells assessed as ratio of COX1 to SDH-A protein levels at 250 after 48 hrs by ELISA relative to control; format: functional
GM16216 [38] = assay: Effect on ATP production in human GM16216 cells at 0.1 uM after 24 hrs by Vialight reagent based luminescence assay; format: functional, cell-based
GM15850 [39] = assay: Effect on ATP production in human GM15850 cells at 0.1 uM after 24 hrs by Vialight reagent based luminescence assay; format: functional, cell-based
GM16216 [40] = assay: Inhibition of ATP production in human GM16216 cells after 24 hrs by Vialight reagent based luminescence assay; format: functional, cell-based
GM15850 [41] = assay: Inhibition of ATP production in human GM15850 cells after 24 hrs by Vialight reagent based luminescence assay; format: functional, cell-based
GM15850 [42] = assay: Cytotoxicity against human GM15850 cells at 2.5 uM after 48 hrs by live/dead staining-based flow cytometry; format: cell-based; settings: gm15850, 48 h
GM16216 [43] = assay: Cytotoxicity against human GM16216 cells at 2.5 uM after 48 hrs by live/dead staining-based flow cytometry; format: cell-based; settings: gm16216, 48 h
GM15850 [44] = assay: Increase in ATP production in human GM15850 cells at 0.1 uM after 24 hrs by Vialight reagent based luminescence assay; format: functional, cell-based
GM16216 [45] = assay: Increase in ATP production in human GM16216 cells at 0.1 uM after 24 hrs by Vialight reagent based luminescence assay; format: functional, cell-based
GM16216 [46] = assay: Effect on ATP production in human GM16216 cells at 0.5 uM after 24 hrs by Vialight reagent based luminescence assay; format: functional, cell-based
GM15850 [47] = assay: Effect on ATP production in human GM15850 cells at 0.5 uM after 24 hrs by Vialight reagent based luminescence assay; format: functional, cell-based

CCCCCCCCCCCCCCCCc1cc2nc3ccc(N(C)C)cc3sc-2cc1=O
Activity (GM16216 [1]): 12%
Activity (GM16216 [2]): 139%
Activity (GM15850 [3]): 127%
inhibition (GM16216 [4]): Active
Activity (GM15850 [5]): 12%
Activity (GM15850 [6]): Active
Activity (GM16216 [7]): 121%
Activity (GM15850 [8]): 120%
Activity (GM15850 [9]): 131%
Activity (GM16216 [10]): 124%
Activity (GM16216 [11]): 88%
Activity (GM16216 [12]): 124%
Activity (GM15850 [13]): 88%
Activity (GM16216 [14]): Active
Activity (GM16216 [15]): 127%
Activity (GM16216 [16]): Active
Activity (GM15850 [17]): Active
Activity (GM15850 [18]): 124%
Activity (GM16216 [19]): 132%
Activity (GM15850 [20]): Active
inhibition (GM15850 [21]): Active
Activity (GM16216 [22]): Non-Toxic
Activity (GM16216 [23]): 132%
Activity (GM15850 [24]): Dose-dependent effect
Activity (GM15850 [25]): 127%
Activity (GM15850 [26]): 132%
Activity (GM16216 [27]): 127%
Activity (GM15850 [28]): 132%
Activity (GM15850 [29]): Non-Toxic
Activity (GM15850 [30]): Dose-dependent effect
Activity (GM16216 [31]): Dose-dependent effect
Activity (GM15850 [32]): 124%
Activity (GM16216 [33]): 131%
Activity (GM16216 [34]): Active
Activity (GM16216 [35]): 120%
Activity (GM15850 [36]): 121%
Activity (GM15850 [37]): 139%

CCCCCc1cc2nc3ccc(N(C)C)cc3sc-2cc1=O
Activity (GM16216 [1]): 16%
Activity (GM16216 [38]): inactive
Activity (GM15850 [39]): inactive
inhibition (GM16216 [40]): Dose-dependent effect
Activity (GM15850 [5]): 16%
inhibition (GM15850 [41]): Dose-dependent effect
Activity (GM16216 [11]): 84%
Activity (GM15850 [13]): 84%
Activity (GM15850 [42]): Toxic
Activity (GM15850 [30]): Dose-dependent effect
Activity (GM16216 [31]): Dose-dependent effect
Activity (GM16216 [43]): Toxic

CCCCCCCCCCCc1cc2nc3ccc(N(C)C)cc3sc-2cc1=O
Activity (GM16216 [1]): 14%
Activity (GM15850 [44]): Active
inhibition (GM16216 [4]): Active
Activity (GM15850 [5]): 14%
Activity (GM16216 [11]): 86%
Activity (GM15850 [13]): 86%
Activity (GM16216 [14]): Active
Activity (GM15850 [17]): Active
Activity (GM16216 [45]): Active
Activity (GM16216 [46]): inactive
Activity (GM15850 [20]): Active
inhibition (GM15850 [21]): Active
Activity (GM16216 [22]): Non-Toxic
Activity (GM15850 [47]): inactive
Activity (GM15850 [29]): Non-Toxic
Activity (GM15850 [30]): Dose-dependent effect
Activity (GM16216 [31]): Dose-dependent effect
Activity (GM16216 [34]): Active
